Experimental data reported in patent EP0108285B1, “Antiviral purine derivatives” (THE WELLCOME FOUNDATION LIMITED, priority 1982, dated 1984).
Converted amounts (≈) assume the structure as drawn. Blank lines part the entries; values can stand above or below the compound they belong to.

Legend:
[1] = physchem; type: physicochemical; settings: water
Source text: This improved water-solubility enables 6-deoxyacyclovir to be used in a greater variety of aqueous pharmaceutical formulations which require some solubilisation of the drug.

[2] = Toxicity study in beagle dogs, per os; type: in vivo; settings: 40mg/kg/day for 5 consecutive days, sacrificed at end of treatment or after a 2-week post-dose period
Description: Two male and 2 female beagle dogs were given 6-deoxyacyclovir per os ([…] daily for 5 consecutive days) at a dose level of 40mg/kg/day. There were no effects in 1 male and 1 female sacrificed at the end of the treatment period or in 1 male and 1 female sacrificed after a 2-week post-dose period.

[3] = test system: ICI strain of herpes simplex virus Type 1; experiment: Antiviral activity in mice infected intracerebrally with herpes simplex virus; type: in vivo, CD1 mice; settings: for Mean Reciprocal Survival times / Survival Times (Days): 100mg/kg/dose; for Mean Reciprocal Survival times: virus controls 0.407; for Survival Times (Days): 2-3 hours after infection and twice daily for 4 days, observed over 14 days, groups of 10 mice
Description: The mice were divided into groups of 10, one group acting as untreated virus controls and the other groups receiving respectively (A) acyclovir at 100mg/kg/dose (i) subcutaneously (s.c.) (ii) orally (iii) intraperitoneally (i.p.) (B) the compound of Example 1 (6-deoxyacyclovir) at 100mg/kg/dose i) subcutaneously (s.c.) ii) orally iii) intraperitoneally (i.p.). The treatment groups received dosages of the drug 2-3 hours after infection and twice daily for 4 days. Observations were made over 14 days survival times were recorded.

[4] = target: T1, xanthine oxidase (Bos taurus, UniProt P80457); experiment: Oxidation by xanthine oxidase (enzyme studies); type: biochemical; settings: xanthine oxidase from bovine milk; compared with 2-aminopurine
T1 construct: xanthine oxidase from bovine milk; from tissue; host or cells: bovine milk
Source text: The discovery that the 6-hydrogen purine above can be readily converted into its corresponding 6-hydroxy analogue is surprising since in previous studies with xanthine oxidase from bovine milk (H. Lettre et al (1967) Biochem. Pharmacol., 16, 1747-1755; T. A. Krenitsky et al (1972) Arch. Biophys., 150, 585-599), it was shown that 9-substitution obliterates or greatly diminishes the rate at which a variety of purines are oxidised.

[5] = Urinary excretion of acyclovir after oral dosing of rats (radioimmunoassay); type: in vivo, Long Evans male rats; settings: rat, dose 25 mg/kg, urine samples, read-out: %Dose Excreted as Acyclovir
Description: The following experiments carried out to determine the urinary excretion and plasma levels of acyclovir after oral dosing of rats with acyclovir, 6-deoxyacyclovir and the 6-amino analogue thereof i.e. 2,6-diamino-9-(2-hydroxyethoxymethyl)-purine, hereinafter referred to as aminoacyclovir.
Long Evans male rats were dosed by intragastric needle with the drug and placed in metabolic cages which separated urine from faeces. The collected urine and plasma samples were analyzed for acyclovir content by a radioimmunoassay.

T1 sequence (P80457 whole entry): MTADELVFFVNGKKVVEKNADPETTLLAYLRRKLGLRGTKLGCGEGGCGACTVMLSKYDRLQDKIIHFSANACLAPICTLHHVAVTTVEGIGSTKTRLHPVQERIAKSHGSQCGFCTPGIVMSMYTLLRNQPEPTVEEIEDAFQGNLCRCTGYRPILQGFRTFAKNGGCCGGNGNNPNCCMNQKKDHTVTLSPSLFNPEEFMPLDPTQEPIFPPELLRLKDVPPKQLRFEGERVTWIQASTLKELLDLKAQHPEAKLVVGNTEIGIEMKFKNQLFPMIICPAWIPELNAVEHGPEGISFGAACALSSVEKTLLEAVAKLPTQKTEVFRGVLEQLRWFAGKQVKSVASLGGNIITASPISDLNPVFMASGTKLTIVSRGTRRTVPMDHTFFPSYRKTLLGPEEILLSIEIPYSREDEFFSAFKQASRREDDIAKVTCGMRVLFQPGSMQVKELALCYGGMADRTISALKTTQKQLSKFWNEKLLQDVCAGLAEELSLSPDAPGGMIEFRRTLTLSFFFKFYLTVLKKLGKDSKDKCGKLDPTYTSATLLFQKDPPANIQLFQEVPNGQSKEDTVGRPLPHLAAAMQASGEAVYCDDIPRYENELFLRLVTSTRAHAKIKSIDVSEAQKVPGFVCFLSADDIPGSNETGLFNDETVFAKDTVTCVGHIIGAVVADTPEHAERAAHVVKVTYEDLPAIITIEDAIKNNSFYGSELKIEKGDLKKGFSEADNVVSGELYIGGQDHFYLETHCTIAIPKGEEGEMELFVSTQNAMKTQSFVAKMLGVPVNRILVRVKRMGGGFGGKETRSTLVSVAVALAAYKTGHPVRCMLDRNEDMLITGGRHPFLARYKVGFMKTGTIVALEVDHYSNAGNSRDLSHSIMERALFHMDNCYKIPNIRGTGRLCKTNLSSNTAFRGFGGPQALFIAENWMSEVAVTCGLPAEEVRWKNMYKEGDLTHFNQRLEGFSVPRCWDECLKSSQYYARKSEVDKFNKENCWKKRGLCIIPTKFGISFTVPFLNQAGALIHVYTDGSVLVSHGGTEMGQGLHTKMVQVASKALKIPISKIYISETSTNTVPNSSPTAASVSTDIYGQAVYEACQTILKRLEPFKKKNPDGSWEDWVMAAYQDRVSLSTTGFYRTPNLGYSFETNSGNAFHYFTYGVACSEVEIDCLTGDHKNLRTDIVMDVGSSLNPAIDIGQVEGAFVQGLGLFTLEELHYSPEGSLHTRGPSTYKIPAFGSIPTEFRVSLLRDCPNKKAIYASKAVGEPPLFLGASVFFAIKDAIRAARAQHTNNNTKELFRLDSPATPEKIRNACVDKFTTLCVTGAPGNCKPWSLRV

SMILES: Nc1ncc2ncn(COCCO)c2n1 [6-Deoxyacyclovir, 2-Amino-9-(2-hydroxyethoxymethyl)-9H-purine]
solubility [1]: 50 mg/mL (≈ 239 mM)
effects (toxicity) [2]: no effects
antiviral action compared with acyclovir ([3]; administered orally): more effective action than acyclovir
Mean Reciprocal Survival times ([3]; i.p.): 0.233
Survival Times (Days) ([3]; oral): 1+2 1+4 2+5 3+6 1+8 1 survivor
Mean Reciprocal Survival times ([3]; oral): 0.186
Mean Reciprocal Survival times ([3]; s.c.): 0.289
rate of oxidation by the enzyme [4]: faster rate than the 9- unsubstituted purine

solubility [1]: 1.23 mg/mL (≈ 5.46 mM)
dose excreted at 48 h [5]: 19.2%
SMILES: Nc1nc2c(ncn2COCCO)c(=O)[nH]1 [Acyclovir, 9-(2-hydroxyethoxymethyl)guanine, reference compound]
Survival Times (Days) ([3]; i.p.): 2+2 2+4 2+5 2+7 1 survivor
Mean Reciprocal Survival times ([3]; i.p.): 0.242
Mean Reciprocal Survival times ([3]; oral): 0.325
Mean Reciprocal Survival times ([3]; s.c.): 0.261
